Measurements: patent US7371776B2, “Methods and compositions for treating cancer” (Mars, Incorporated, priority 2004, dated 2008)

Tests used:
Type in all cases: cell-based, human
[1] = tested on: normal mortal HMECs; experiment: Crystal violet cellular proliferation assay; details: 100 μg/mL
Description: Immortalized human mammary epithelial cells (HMECs), MCF-10A, 184A1N4 and 184B5, normal, finite-life-span HMECs (1001-8, CC-2551) at passage 8, originally derived from mammoplasty breast tissues, were purchased from Clonetics-BioWhittaker, Inc. (Waskersville, Md.). Cell lines generated by introduction of c-MYC, ErbB2 and RAS oncogene into MCF-10A cells (MCF-10A-ErbB2/Ras cells and MCF-10A-c-Myc) were also used.
Normal mortal HMECs were maintained according to the supplier's instructions in mammary epithelial cell growth medium (CC-3152) (Clonetics) supplemented with 52 μg of bovine pituitary extract per ml, 10 ng/mL of human EGF, 5 μg/mL of insulin, and 0.5 μg/mL of hydrocortisone and were grown in 37° C. incubators with low (0.1 to 0.2%) CO2 settings.
One×10^3 cells per well were seeded in 96 well dishes (Coming Costar, Cambridge, Mass.). Primary cultures of HMECs, A1N4 and 184B5 cells were evaluated at two different cell densities (seeded at 1×10^3 and 2×10^3 per well). […]
Cells were treated for 1, 2, 3, 6, 8 and 10 days, but in some cases, the samples were collected at days 2, 3, 4, 7 and 10 post-treatment. […] The optical density (OD) of samples was read at 550 nm on an Ultramark Microplate Imagining System (BioRad, Philadelphia, Pa.). […] Statistical significance was determined using the t test analysis.

[2] = tested on: FKHR; experiment: Confirmation of LPS results by immunoblotting, MDA MB-231 cells
Experimental: (§1) The proteins affected by pentamer, as detected by LPS, were analyzed further by immunoblotting. Antibodies against the following proteins were used: Cdc2 (Tyr15), FKHR (Ser256), p53 (Ser37, Ser46 and Ser392), PKC-δ (Ser643), PKC-θ (Ser643/676), pRb (Ser795 and Ser807/811), SAPK/JNK (Thr183/Tyr185) and Stat 5 (Tyr694) (all antibodies were obtained from Cell Signaling).
(§2) Protein pellets from pentamer-treated MDA MB-231, MDA MB-468 and MCF-7 cells and corresponding DMSO-treated controls were lysed in PBS with 1% SDS and sonicated for 15 seconds at a power of five watts. Samples were then centrifuged at 10,000 rpm and supernatants transferred into clean tubes. Protein concentration was determined as descried above. Ten jig of each protein sample was separated by PAGE on 4-20% gradient gels (BioRad, Philadelphia, Pa.). Gels were either transferred to PVDF membranes (BioRad) or P-FILM membrane (stacks of 10 membranes) according to the manufacturer's instructions (20/20 Gene Systems). PVDF membranes were blocked for 1 hour in 0.5% casein solution (Vector Laboratories, Burlingame, Calif.), prior to incubation with primary antibodies. […] The membranes were incubated overnight at 4° C. in 1:500 dilutions of primary antibodies, washed three times in TBST for five minutes, incubated in HRP-conjugated secondary antibodies, washed again and incubated in ECL Plus Reagent (Amersham). Signals were visualized on BIOMAX MR film (Kodak, Rochester, N.Y.). Following incubation with primary antibodies, membranes were incubated in anti-GAPDH antibody (1:500 dilution; Chemicon, Temecula, Calif.). The presence of this protein was visualized with secondary antibody conjugated to alkaline phosphatase DuoLux substrate (Vector Laboratories).
(§3) As a control, the PVDF membranes probed for Cdc2, FKHR, p53, and pRb were stripped according to manufacturer's instructions (Cell Signaling). After striping, membranes were washed four times for five minutes each in TBST buffer, blocked as described above, washed again and incubated in primary antibodies overnight at 4° C. The primary antibodies used were anti-total Cdc2 (1:1000 dilution, Cell Signaling), anti-total FKHR (1:1000 dilution, Cell Signaling), anti-endogenous p53 (1:1000, Cell Signaling) and anti-endogenous pRb (1:1000, Santa Cruz). The next day, membranes were washed and incubated in HRP conjugated secondary antibodies, washed again and incubated in ECL Plus Reagent (Amersham). Signals were detected as previously described. To test equality of loading, membranes were probed with anti-GAPDH antibody (1:500 dilution; Chemicon, Temecula, Calif.) as described above.

[3] = tested on: pRb; experiment: as above
Experimental: as §1, §2, §3

[4] = tested on: p53; experiment: as above
Experimental: as §1, §2, §3

[5] = tested on: Cdc2; experiment: as above
Experimental: as §1, §2, §3

[6] = tested on: PKC-δ; experiment: as above; details: PVDF membranes
Experimental: as §1, §2

[7] = tested on: SAPK/JNK; experiment: as above; details: PVDF membranes
Experimental: as §1, §2

[8] = tested on: PKC-θ; experiment: as above; details: PVDF membranes
Experimental: as §1, §2

[9] = tested on: Stat5; experiment: as above; details: PVDF membranes
Experimental: as §1, §2

[10] = LPS analysis and PVDF membrane experiments

Oc1cc(O)c2c(c1)O[C@H](c1ccc(O)c(O)c1)[C@H](O)[C@H]2c1c(O)cc(O)c2c1O[C@H](c1ccc(O)c(O)c1)[C@H](O)[C@H]2c1c(O)cc(O)c2c1O[C@H](c1ccc(O)c(O)c1)[C@H](O)[C@H]2c1c(O)cc(O)c2c1O[C@H](c1ccc(O)c(O)c1)[C@H](O)[C@H]2c1c(O)cc(O)c2c1O[C@H](c1ccc(O)c(O)c1)[C@H](O)C2 [pentamer, pentameric procyanidin]
growth inhibited, in comparison to DMSO-treated controls [1]: 1.4 fold | total protein expression of FKHR [2, 10]: not affected | effect on phosphorylated form of FKHR (Ser256) ([2]; immunoblot, 48 and 72 hrs): had an effect | pRb, both total and phospho-specific sites ([3]; PVDF membrane reprobed): affected | effect on phosphorylated form of pRb (Ser795 and Ser807/811) ([3]; immunoblot, 48 and 72 hr): had an effect | total protein expression of p53 [4, 10]: not affected | effect on phosphorylated form of p53 (Ser37, Ser46 and Ser392) ([4]; immunoblot, 72 hrs): had an effect | total protein expression of Cdc2 [5, 10]: not affected | effect on phosphorylated form of Cdc2 (Tyr15) ([5]; immunoblot, 48 and 72 hrs): had an effect | confirmation of LPS result on PKC-δ by immunoblotting [6]: not confirmed | confirmation of LPS result on SAPK/JNK by immunoblotting [7]: not confirmed | confirmation of LPS result on PKC-θ by immunoblotting [8]: not confirmed | confirmation of LPS result on Stat5 by immunoblotting [9]: not confirmed
